ChEMBL document CHEMBL4229439, “Design, synthesis and antimycobacterial activity of 3,5-dinitrobenzamide derivatives containing fused ring moieties” (2018)
In brackets after ≈: the same amount, converted by molar mass. Activity calls are given as the source filed them. The calls are words filed in the database; no cut-off is given here.

The compounds below were run on Mycobacterium tuberculosis (assay: Antimycobacterial activity against Mycobacterium tuberculosis H37Rv ATCC 27294 after 7 days by Alamar blue assay). Conditions: H37Rv ATCC 27294, 168 h.
Type: functional

| Structure (SMILES) | MIC [µg/mL] |
| --- | --- |
| CCC(C)C(=O)N1CCc2cc(CNC(=O)c3cc([N+](=O)[O-])cc([N+](=O)[O-])c3)ccc2C1 (stereo not drawn) | 0.468 (≈ 1.06 µM) |
| CCOC(=O)CN1CCc2cc(CNC(=O)c3cc([N+](=O)[O-])cc([N+](=O)[O-])c3)ccc2C1 | 0.243 (≈ 0.549 µM) |
| O=C(NCc1ccc2c(c1)CN(c1ccc(C(F)(F)F)cc1)C2)c1cc([N+](=O)[O-])cc([N+](=O)[O-])c1 | 0.098 (≈ 0.201 µM) |
| NNC(=O)c1ccncc1 [ISONIAZID] | 0.039 (≈ 0.284 µM) |
| O=C(NCc1ccc2c(c1)CNC2)c1cc([N+](=O)[O-])cc([N+](=O)[O-])c1 | < 0.016 |
| O=C(NCc1ccc2c(c1)CCN(CC1CCCCC1)C2)c1cc([N+](=O)[O-])cc([N+](=O)[O-])c1 | 0.226 (≈ 0.499 µM) |
| CC(C)(C)OC(=O)CN1CCc2cc(CNC(=O)c3cc([N+](=O)[O-])cc([N+](=O)[O-])c3)ccc2C1 | 3.81 (≈ 8.1 µM) |
| O=C(NCc1ccc2c(c1)CCN(C(=O)c1ccc(F)cc1)C2)c1cc([N+](=O)[O-])cc([N+](=O)[O-])c1 | 0.424 (≈ 0.886 µM) |
| CC(C)CC(=O)N1CCc2cc(CNC(=O)c3cc([N+](=O)[O-])cc([N+](=O)[O-])c3)ccc2C1 | 0.204 (≈ 0.463 µM) |
| COc1ccc(C(=O)N2Cc3ccc(CNC(=O)c4cc([N+](=O)[O-])cc([N+](=O)[O-])c4)cc3C2)cc1 | > 32 |
| O=C(NCc1ccc2c(c1)CN(C(=O)c1ccc(F)cc1)C2)c1cc([N+](=O)[O-])cc([N+](=O)[O-])c1 | 0.926 (≈ 1.99 µM) |
| O=C(NCc1ccc2c(c1)CCN(c1ccc(OC(F)(F)F)cc1)C2)c1cc([N+](=O)[O-])cc([N+](=O)[O-])c1 | 0.241 (≈ 0.467 µM) |
| O=C(NCc1ccc2c(c1)CN(Cc1ccc(C(F)(F)F)cc1)C2)c1cc([N+](=O)[O-])cc([N+](=O)[O-])c1 | < 0.016 |
| O=C(NCc1ccc2c(c1)CN(c1ccc(F)cc1)C2)c1cc([N+](=O)[O-])cc([N+](=O)[O-])c1 | 0.026 (≈ 0.0596 µM) |
| O=C(NCc1ccc2c(c1)CN(Cc1ccc(F)cc1)C2)c1cc([N+](=O)[O-])cc([N+](=O)[O-])c1 | 0.028 (≈ 0.0622 µM) |
| CC(=O)CCN1CCc2cc(CNC(=O)c3cc([N+](=O)[O-])cc([N+](=O)[O-])c3)ccc2C1 | 22.7 (≈ 53.3 µM) |
| O=C(NCc1ccc2c(c1)CN(C(=O)c1ccc(OC(F)(F)F)cc1)C2)c1cc([N+](=O)[O-])cc([N+](=O)[O-])c1 | 0.309 (≈ 0.583 µM) |
| O=C(NCc1ccc2c(c1)CCN(Cc1ccc(OC(F)(F)F)cc1)C2)c1cc([N+](=O)[O-])cc([N+](=O)[O-])c1 | 0.241 (≈ 0.454 µM) |
| O=C(CN1CCc2cc(CNC(=O)c3cc([N+](=O)[O-])cc([N+](=O)[O-])c3)ccc2C1)OCc1ccccc1 | 7.55 (≈ 15 µM) |
| CC(C)(C)C(=O)N1Cc2ccc(CNC(=O)c3cc([N+](=O)[O-])cc([N+](=O)[O-])c3)cc2C1 | 0.489 (≈ 1.15 µM) |
| CC(C)(C)C(=O)N1CCc2cc(CNC(=O)c3cc([N+](=O)[O-])cc([N+](=O)[O-])c3)ccc2C1 | 0.447 (≈ 1.01 µM) |

| Structure (SMILES) | MIC [µg/mL] |
| --- | --- |
| O=C(NCc1ccc2c(c1)CCN(c1ccc(C(F)(F)F)cc1)C2)c1cc([N+](=O)[O-])cc([N+](=O)[O-])c1 | 0.079 (≈ 0.158 µM) |
| CCN(CC)C(=O)CN1CCc2cc(CNC(=O)c3cc([N+](=O)[O-])cc([N+](=O)[O-])c3)ccc2C1 | 15.3 (≈ 32.7 µM) |
| CO[C@H]1/C=C/O[C@@]2(C)Oc3c(C)c(O)c4c(O)c(c(/C=N/N5CCN(C)CC5)c(O)c4c3C2=O)NC(=O)/C(C)=C\C=C\[C@H](C)[C@H](O)[C@@H](C)[C@@H](O)[C@@H](C)[C@H](OC(C)=O)[C@@H]1C [RIFAMPIN] | 0.095 (≈ 0.115 µM) |
| O=C(NCc1ccc2c(c1)CN(C(=O)C1CCCCC1)C2)c1cc([N+](=O)[O-])cc([N+](=O)[O-])c1 | 0.808 (≈ 1.79 µM) |
| O=C(NCc1ccc2c(c1)CCN(Cc1cc(C(F)(F)F)cc(C(F)(F)F)c1)C2)c1cc([N+](=O)[O-])cc([N+](=O)[O-])c1 | 1.9 (≈ 3.26 µM) |
| O=C(NCc1ccc2c(c1)CN(Cc1ccc(OC(F)(F)F)cc1)C2)c1cc([N+](=O)[O-])cc([N+](=O)[O-])c1 | 0.016 (≈ 0.031 µM) |
| O=C(NCc1ccc2c(c1)CCN(c1ccc(F)cc1)C2)c1cc([N+](=O)[O-])cc([N+](=O)[O-])c1 | 0.076 (≈ 0.169 µM) |
| COc1ccc(CN2Cc3ccc(CNC(=O)c4cc([N+](=O)[O-])cc([N+](=O)[O-])c4)cc3C2)cc1 | 0.03 (≈ 0.0649 µM) |
| O=C(NCc1ccc2c(c1)CCN(Cc1ccc(Cl)cc1)C2)c1cc([N+](=O)[O-])cc([N+](=O)[O-])c1 | 0.056 (≈ 0.116 µM) |
| O=C(NCc1ccc2c(c1)CCN(C(=O)C1CCCCC1)C2)c1cc([N+](=O)[O-])cc([N+](=O)[O-])c1 | 0.5 (≈ 1.07 µM) |
| CN1CCc2cc(CNC(=O)c3cc([N+](=O)[O-])cc([N+](=O)[O-])c3)ccc2C1 | 11.4 (≈ 30.9 µM) |
| CC(=O)CN1CCc2cc(CNC(=O)c3cc([N+](=O)[O-])cc([N+](=O)[O-])c3)ccc2C1 | 3.12 (≈ 7.56 µM) |
| COc1ccc(C(=O)N2CCc3cc(CNC(=O)c4cc([N+](=O)[O-])cc([N+](=O)[O-])c4)ccc3C2)cc1 | 1.15 (≈ 2.34 µM) |
| O=c1nc(N2CCN(CC3CCCCC3)CC2)sc2c([N+](=O)[O-])cc(C(F)(F)F)cc12 [MACOZINONE] | < 0.016 |
| O=C(NCc1ccc2c(c1)CN(C(=O)c1ccccc1)C2)c1cc([N+](=O)[O-])cc([N+](=O)[O-])c1 | 1.45 (≈ 3.25 µM) |
| O=C(NCc1ccc2c(c1)CCN(Cc1ccc(Br)cc1)C2)c1cc([N+](=O)[O-])cc([N+](=O)[O-])c1 | 0.108 (≈ 0.206 µM) |
| O=C(NCc1ccc2c(c1)CCN(C(=O)c1ccccc1)C2)c1cc([N+](=O)[O-])cc([N+](=O)[O-])c1 | 0.974 (≈ 2.12 µM) |
| O=C(NCc1ccc2c(c1)CCN(Cc1ccc(F)cc1)C2)c1cc([N+](=O)[O-])cc([N+](=O)[O-])c1 | 0.122 (≈ 0.263 µM) |
| O=C(NCc1ccc2c(c1)CCN(C(=O)CC1CCCCC1)C2)c1cc([N+](=O)[O-])cc([N+](=O)[O-])c1 | 0.978 (≈ 2.04 µM) |
| O=C(CN1CCc2cc(CNC(=O)c3cc([N+](=O)[O-])cc([N+](=O)[O-])c3)ccc2C1)NCc1ccccc1 | 3.96 (≈ 7.86 µM) |
| O=C(NCc1ccc2c(c1)CCN(Cc1cccc(F)c1)C2)c1cc([N+](=O)[O-])cc([N+](=O)[O-])c1 | 0.056 (≈ 0.121 µM) |

The compounds below were run on Mycobacterium tuberculosis (assay: Antimycobacterial activity against Mycobacterium tuberculosis H37Rv ATCC 27294 up to 10 ug/ml after 7 days by Alamar blue assay). Conditions: not given.
Type: functional, organism-based

| Structure (SMILES) | Activity |
| --- | --- |
| O=C(NCc1ccc2c(c1)CNC2)c1cc([N+](=O)[O-])cc([N+](=O)[O-])c1 | inactive |
